Test results taken from ChEMBL document CHEMBL1126133, “2-Nitroimidazole dual-function bioreductive drugs: studies on the effects of regioisomerism and side-chain structural modifications on differential cytotoxicity and radiosensitization by aziridinyl and oxiranyl derivatives” (1992).

Experiments:
[1] = Concentration required to kill 50% of V79-379A cells under N2 (in vitro); format: functional, Cricetulus griseus
[2] = Concentration required to kill 50% of aerobic V79-379A cells (in vitro); format: functional, Cricetulus griseus
[3] = Ratio of concentration required to kill 50% aerobic V79-379A cells C50(air) to that of concentration required to kill 50% of cells under N2 C50(N2) was determined; format: functional
[4] = Radiosensitization of hypoxic V79-379A cells was determined in vitro; expressed as concentration required to give enhancement ratio of 1.6

## O=[N+]([O-])c1nccn1CCC1CO1 (stereo not given)
[1]
  C50: 0.25 mM
[2]
  C50: 0.5 mM
[3]
  Ratio: 2

## CC(C)(C(O)Cn1ccnc1[N+](=O)[O-])N1CC1 (stereo not given)
[1]
  C50: 0.008 mM
[2]
  C50: 0.1 mM
[3]
  Ratio: 12.5
[4]
  C1.6: 0.07 mM

## O=[N+]([O-])c1nccn1[C@H]1CCC[C@@H](N2CC2)[C@@H]1O
[1]
  C50: 0.35 mM
[2]
  C50: 0.35 mM
[3]
  Ratio: 1
[4]
  C1.6: 0.45 mM

## CC(O)(CN1CC1)Cn1ccnc1[N+](=O)[O-] (stereo not given)
[1]
  C50: 0.02 mM
[2]
  C50: 0.55 mM
[3]
  Ratio: 27.5

## C[C@@H]([C@H](O)Cn1ccnc1[N+](=O)[O-])N1CC1
[1]
  C50: 0.01 mM
[2]
  C50: 0.2 mM
[3]
  Ratio: 20
[4]
  C1.6: 0.12 mM

## CC1CN1CC(O)Cn1ccnc1[N+](=O)[O-] (stereo not given)
[1]
  C50: 0.065 mM
[2]
  C50: 0.79 mM
[3]
  Ratio: 12.2
[4]
  C1.6: 0.08 mM

## O=[N+]([O-])c1nccn1[C@@H]1CCC[C@@H]2O[C@@H]21
[1]
  C50: 0.18 mM
[2]
  C50: 0.28 mM
[3]
  Ratio: 1.5

## CC1(Cn2ccnc2[N+](=O)[O-])CO1 (stereo not given)
[1]
  C50: 0.2 mM
[2]
  C50: 0.2 mM
[3]
  Ratio: 1

## O=[N+]([O-])c1nccn1CCCCC1CO1 (stereo not given)
[1]
  C50: 0.7 mM
[2]
  C50: 1.2 mM
[3]
  Ratio: 1.7

## O=[N+]([O-])c1nccn1CC(O)CCC1CO1 (stereo not given)
[1]
  C50: 0.4 mM
[2]
  C50: 0.6 mM
[3]
  Ratio: 1.5
[4]
  C1.6: 0.4 mM

## CC1OC1Cn1ccnc1[N+](=O)[O-] (stereo not given)
[1]
  C50: 3.3 mM
[2]
  C50: 10 mM
[3]
  Ratio: 3

## O=[N+]([O-])c1nccn1CC(O)C1CO1 (stereo not given)
[1]
  C50: 0.36 mM
[2]
  C50: 1.2 mM
[3]
  Ratio: 3.3
[4]
  C1.6: 0.2 mM

## O=[N+]([O-])c1nccn1CC(O)CN1CC1 (stereo not given)
[1]
  C50: 0.015 mM
[2]
  C50: 0.3 mM
[3]
  Ratio: 20
[4]
  C1.6: 0.1 mM

## O=[N+]([O-])c1ncc[nH]1 [AZOMYCIN]
[1]
  C50: 0.27 mM
[2]
  C50: 0.55 mM
[3]
  Ratio: 2
[4]
  C1.6: 0.25 mM
